Assay results as given in the supplement of paper PMC10307832.

Assays:
Test in all cases: relative viability (nuclei count vs DMSO), 5 days (fraction); higher = more cells survive
Ibrutinib + Navitoclax = compound: C=CC(=O)N1CCC[C@@H](n2nc(-c3ccc(Oc4ccccc4)cc3)c3c(N)ncnc32)C1 [Ibrutinib] + CC1(C)CCC(c2ccc(Cl)cc2)=C(CN2CCN(c3ccc(C(=O)NS(=O)(=O)c4ccc(N[C@H](CCN5CCOCC5)CSc5ccccc5)c(S(=O)(=O)C(F)(F)F)c4)cc3)CC2)C1 [Navitoclax] (partner 0.5 µM)
Procedure, shortened: (§1)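 Relative viability is defined as nuclei in treated wells over nuclei in vehicle wells. Duplicate plates were run and medians reported. Lung cancer cell lines in 1536-well plates were dosed by pin tool one day after seeding, with one drug or with a fixed anchor-drug dose plus five library-drug doses (not always all listed) in √10 steps, and nuclei were counted after 5 days.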

Ibrutinib + Phenformin = compound: C=CC(=O)N1CCC[C@@H](n2nc(-c3ccc(Oc4ccccc4)cc3)c3c(N)ncnc32)C1 [Ibrutinib] + N=C(N)NC(=N)NCCc1ccccc1 [Phenformin] (partner 250 µM)
Procedure, shortened: as §1

Ibrutinib + AZD7762 = compound: C=CC(=O)N1CCC[C@@H](n2nc(-c3ccc(Oc4ccccc4)cc3)c3c(N)ncnc32)C1 [Ibrutinib] + NC(=O)Nc1cc(-c2cccc(F)c2)sc1C(=O)N[C@H]1CCCNC1 [AZD7762] (partner 0.2 µM)
Procedure, shortened: as §1

PAC-1 + Bortezomib = compound: C=CCc1cccc(/C=N/NC(=O)CN2CCN(Cc3ccccc3)CC2)c1O [PAC-1] + CC(C)C[C@H](NC(=O)[C@H](Cc1ccccc1)NC(=O)c1cnccn1)B(O)O [Bortezomib] (partner 0.002 µM)
Procedure, shortened: as §1

| Cell Line | relative viability (Ibrutinib + Navitoclax; first compound 0.005 µM) | relative viability (Ibrutinib + Navitoclax; first compound 0.01581 µM) | relative viability (Ibrutinib + Navitoclax; first compound 0.05 µM) | relative viability (Ibrutinib + Phenformin; first compound 0.005 µM) | relative viability (Ibrutinib + Phenformin; first compound 0.01581 µM) | relative viability (Ibrutinib + Phenformin; first compound 0.05 µM) | relative viability (Ibrutinib + Phenformin; first compound 0.1581 µM) | relative viability (Ibrutinib + Phenformin; first compound 0.5 µM) | relative viability (Ibrutinib + AZD7762; first compound 0.005 µM) | relative viability (Ibrutinib + AZD7762; first compound 0.01581 µM) | relative viability (Ibrutinib + AZD7762; first compound 0.05 µM) | relative viability (Ibrutinib + AZD7762; first compound 0.1581 µM) | relative viability (Ibrutinib + AZD7762; first compound 0.5 µM) | relative viability (PAC-1 + Bortezomib; first compound 0.02 µM) | relative viability (PAC-1 + Bortezomib; first compound 0.06325 µM) | relative viability (PAC-1 + Bortezomib; first compound 0.2 µM) | relative viability (PAC-1 + Bortezomib; first compound 2 µM) | relative viability (Ibrutinib + Navitoclax; first compound 0.1581 µM) | relative viability (Ibrutinib + Navitoclax; first compound 0.5 µM) |
| --- | --- | --- | --- | --- | --- | --- | --- | --- | --- | --- | --- | --- | --- | --- | --- | --- | --- | --- | --- |
| HCC-366 | 0.986 | 0.977 | 1.06 | 0.63 | 0.595 | 0.593 | 0.543 | 0.665 | 0.329 | 0.233 | 0.247 | 0.347 | 0.303 | 1.01 | 1.04 | 1.07 | 1.14 |  |  |
| IA-LM | 0.768 | 0.853 | 0.79 |  |  |  |  |  |  |  |  |  |  | 0.803 | 0.756 | 0.783 | 0.807 | 0.79 | 0.951 |
| LCLC-103H |  |  |  | 0.334 | 0.282 | 0.3 | 0.369 | 0.275 | 0.829 | 0.706 | 0.733 | 0.835 | 0.745 | 1.17 | 1.1 | 1.1 | 1.18 |  |  |
| LK-2 |  | 0.7 | 0.851 |  | 0.529 | 0.396 | 0.357 | 0.282 | 0.31 | 0.513 | 0.438 | 0.405 | 0.25 |  |  |  |  | 0.956 | 0.75 |
| NCI-H358 |  |  |  | 0.23 |  | 0.178 | 0.202 | 0.174 | 0.404 | 0.349 | 0.282 | 0.515 | 0.29 |  |  |  |  |  |  |
| NCI-H520 | 1.02 | 1.08 | 1.21 | 0.431 | 0.606 | 0.583 | 0.634 | 0.356 |  |  |  |  |  | 0.716 | 0.624 | 0.607 | 0.421 | 1.13 | 0.959 |
| NCI-H522 |  |  |  | 0.627 | 0.545 | 0.688 | 0.582 | 0.622 | 0.847 | 0.698 | 0.683 | 0.766 | 0.751 |  |  |  |  |  |  |
| NCI-H650 |  |  |  | 0.457 | 0.456 | 0.372 | 0.492 | 0.493 | 1.02 | 0.858 | 0.94 | 1.15 | 1.02 | 0.755 | 0.871 | 0.736 | 0.735 |  |  |
| NCI-H661 |  |  |  | 0.26 | 0.281 | 0.252 | 0.287 | 0.271 |  |  |  |  |  | 0.782 | 0.816 | 0.782 | 0.91 |  |  |
| NCI-H1299 | 1.07 | 1.02 | 1.11 |  |  |  |  |  |  |  |  |  |  | 1.02 | 0.99 | 0.975 | 0.993 | 1.07 | 1.04 |
| NCI-H1395 | 1.07 |  | 1.15 | 0.281 | 0.404 | 0.468 | 0.442 | 0.405 | 0.405 | 0.403 | 0.387 | 0.404 | 0.413 |  |  |  |  | 1.54 | 1.17 |
| NCI-H1563 |  |  |  | 0.695 | 0.668 | 0.652 | 0.65 | 0.657 |  |  |  |  |  | 0.854 | 0.833 | 0.844 | 0.916 |  |  |
| NCI-H1623 |  |  |  | 0.571 | 0.532 | 0.509 | 0.347 | 0.27 |  |  |  |  |  |  |  |  |  |  |  |
| NCI-H1648 |  |  |  |  |  |  |  |  | 0.697 | 0.66 | 0.673 | 0.762 | 0.865 |  |  |  |  |  |  |
| NCI-H1650 | 0.998 | 0.932 | 1.24 | 0.403 | 0.358 | 0.353 | 0.348 | 0.287 |  |  |  |  |  | 0.198 | 0.18 | 0.183 | 0.229 | 1.25 | 1.1 |
| NCI-H1703 | 0.896 | 0.96 | 1.05 |  |  |  |  |  |  | 0.126 |  | 0.148 | 0.19 | 0.29 | 0.268 | 0.4 | 0.353 | 1.17 | 0.731 |
| NCI-H1793 |  | 0.282 | 0.603 |  | 0.313 | 0.281 | 0.318 | 0.282 | 0.395 | 0.33 | 0.408 | 0.85 | 0.13 |  |  |  |  | 0.498 | 0.343 |
| NCI-H1944 | 0.902 | 0.985 | 0.811 | 0.202 | 0.176 | 0.195 | 0.177 | 0.182 | 0.388 | 0.455 | 0.409 | 0.448 | 0.422 |  |  |  |  | 0.969 | 0.689 |
| NCI-H2009 | 1.13 | 1.12 | 1.22 | 0.558 | 0.476 | 0.518 | 0.476 | 0.499 |  |  |  |  |  | 1.01 | 0.994 | 0.897 | 0.956 | 1.21 | 1.16 |
| NCI-H2023 | 1.02 | 0.919 | 0.884 | 0.376 | 0.392 | 0.402 | 0.45 | 0.357 |  |  |  |  |  | 1.2 | 1.04 | 0.87 | 1.02 | 1.07 | 0.871 |
| NCI-H2170 | 0.377 | 0.343 | 0.235 | 0.431 | 0.42 | 0.395 | 0.39 | 0.36 | 0.699 | 0.695 | 0.655 | 0.769 | 0.182 |  |  |  |  | 0.527 | 0.195 |
| NCI-H2228 | 0.859 | 0.838 | 0.932 | 0.378 |  | 0.346 | 0.263 | 0.285 |  |  |  |  |  | 0.897 | 1.26 | 1.03 | 1.51 | 0.911 | 0.836 |
| NCI-H2342 |  |  |  | 0.472 | 0.56 | 0.57 | 0.455 | 0.452 | 0.317 | 0.6 | 0.499 | 0.472 | 0.345 |  |  |  |  |  |  |
| SK-LU-1 | 0.722 | 0.637 | 1.07 | 0.433 | 0.542 | 0.585 | 0.545 | 0.485 |  |  |  |  |  | 0.8 | 1.3 | 1.21 | 1.22 | 0.948 | 0.036 |
| SW 900 |  |  |  |  |  | 0.588 | 0.669 | 0.618 | 0.472 | 0.565 | 0.597 | 0.513 | 0.512 |  |  |  |  |  |  |
| SW 1573 | 0.904 | 0.857 | 1.01 | 0.317 | 0.345 | 0.477 | 0.406 | 0.423 |  |  |  |  |  | 0.947 | 1.08 | 1.01 | 1.13 | 0.95 | 0.848 |
| UMC-11 | 0.308 | 0.305 | 0.292 | 0.29 | 0.312 | 0.316 | 0.337 | 0.362 |  |  |  |  |  | 0.693 | 0.55 | 0.605 | 0.782 | 0.298 | 0.374 |
